Experiment: on-resin lactamisation, Asp side-chain COOH (C-terminal residue, anchored via Rink amide) + alpha-NH2 of N-terminal Dap(Boc); HATU/DIEA 1.05:2.1 equiv, overnight; then TFA cleavage
Conditions: NMP, 57.0 mM; for ring closure, product found: scale: 1 = cyclic product is largest ESI-MS signal, 0 = linear; for ring closure, conversion by HPLC: scale: % crude HPLC purity, 320 nm area of tallest peak or peak cluster
[1] = from CC(C)(C)OC(=O)NC[C@H](N)C(=O)N[C@@H](CNC(=O)c1cnc2ccccc2n1)C(=O)NCC(=O)NCC(=O)N[C@@H](CNC(=O)c1cnc2ccccc2n1)C(=O)N[C@@H](CNC(=O)c1cnc2ccccc2n1)C(=O)N[C@@H](CC(=O)O)C(N)=O, 22-membered ring
[2] = from CC(C)(C)OC(=O)NC[C@H](N)C(=O)N[C@@H](CNC(=O)c1cnc2ccccc2n1)C(=O)NCC(=O)N[C@@H](CNC(=O)c1cnc2ccccc2n1)C(=O)NCC(=O)NCC(=O)N[C@@H](CC(=O)O)C(N)=O, 22-membered ring
[3] = from CC(C)(C)OC(=O)NC[C@H](N)C(=O)NCC(=O)N[C@@H](CNC(=O)c1cnc2ccccc2n1)C(=O)NCC(=O)N[C@@H](CNC(=O)c1cnc2ccccc2n1)C(=O)N[C@@H](CNC(=O)c1cnc2ccccc2n1)C(=O)N[C@@H](CC(=O)O)C(N)=O, 22-membered ring
[4] = from CC(C)(C)OC(=O)NC[C@H](N)C(=O)NCC(=O)N[C@@H](CNC(=O)c1cnc2ccccc2n1)C(=O)NCC(=O)N[C@@H](CNC(=O)c1cnc2ccccc2n1)C(=O)NCC(=O)N[C@@H](CC(=O)O)C(N)=O, 22-membered ring
[5] = from CC(C)(C)OC(=O)NC[C@H](N)C(=O)NCC(=O)NCC(=O)N[C@@H](CNC(=O)c1cnc2ccccc2n1)C(=O)NCC(=O)NCC(=O)N[C@@H](CC(=O)O)C(N)=O, 22-membered ring
[6] = from CC(C)(C)OC(=O)NC[C@H](N)C(=O)N[C@@H](CNC(=O)c1cnc2ccccc2n1)C(=O)N[C@@H](CNC(=O)c1cnc2ccccc2n1)C(=O)N[C@@H](CNC(=O)c1cnc2ccccc2n1)C(=O)NCC(=O)NCC(=O)N[C@@H](CC(=O)O)C(N)=O, 22-membered ring
[7] = from CC(C)(C)OC(=O)NC[C@H](N)C(=O)N[C@@H](CNC(=O)c1cnc2ccccc2n1)C(=O)NCC(=O)NCC(=O)NCC(=O)N[C@@H](CNC(=O)c1cnc2ccccc2n1)C(=O)N[C@@H](CC(=O)O)C(N)=O, 22-membered ring
[8] = from CC(C)(C)OC(=O)NC[C@H](N)C(=O)NCC(=O)N[C@@H](CNC(=O)c1cnc2ccccc2n1)C(=O)NCC(=O)NCC(=O)N[C@@H](CNC(=O)c1cnc2ccccc2n1)C(=O)N[C@@H](CC(=O)O)C(N)=O, 22-membered ring
[9] = from CC(C)(C)OC(=O)NC[C@H](N)C(=O)NCC(=O)NCC(=O)NCC(=O)N[C@@H](CNC(=O)c1cnc2ccccc2n1)C(=O)N[C@@H](CNC(=O)c1cnc2ccccc2n1)C(=O)N[C@@H](CC(=O)O)C(N)=O, 22-membered ring
[10] = from CC(C)(C)OC(=O)NC[C@H](N)C(=O)NCC(=O)N[C@@H](CNC(=O)c1cnc2ccccc2n1)C(=O)N[C@@H](CNC(=O)c1cnc2ccccc2n1)C(=O)N[C@@H](CNC(=O)c1cnc2ccccc2n1)C(=O)NCC(=O)N[C@@H](CC(=O)O)C(N)=O, 22-membered ring
[11] = from CC(C)(C)OC(=O)NC[C@H](N)C(=O)N[C@@H](CNC(=O)c1cnc2ccccc2n1)C(=O)N[C@@H](CNC(=O)c1cnc2ccccc2n1)C(=O)NCC(=O)NCC(=O)NCC(=O)N[C@@H](CC(=O)O)C(N)=O, 22-membered ring

Question: With `NC[C@@H]1NC(=O)C[C@@H](C(N)=O)NC(=O)[C@H](CNC(=O)c2cnc3ccccc3n2)NC(=O)[C@H](CNC(=O)c2cnc3ccccc3n2)NC(=O)CNC(=O)CNC(=O)[C@H](CNC(=O)c2cnc3ccccc3n2)NC1=O` as the compound, how does the ring closure, product found [1] read?
Answer: 0

Question: And the ring closure, conversion by HPLC [1]?
Answer: < 30

Question: For `NC[C@@H]1NC(=O)C[C@@H](C(N)=O)NC(=O)CNC(=O)CNC(=O)[C@H](CNC(=O)c2cnc3ccccc3n2)NC(=O)CNC(=O)[C@H](CNC(=O)c2cnc3ccccc3n2)NC1=O`, which ring closure, product found [2] is on record?
Answer: 1

Question: And the ring closure, conversion by HPLC [2]?
Answer: 39

Question: What does the source list for `NC[C@@H]1NC(=O)C[C@@H](C(N)=O)NC(=O)[C@H](CNC(=O)c2cnc3ccccc3n2)NC(=O)[C@H](CNC(=O)c2cnc3ccccc3n2)NC(=O)CNC(=O)[C@H](CNC(=O)c2cnc3ccccc3n2)NC(=O)CNC1=O`?
Answer: ring closure, product found [3]: 0; ring closure, conversion by HPLC [3]: < 39

Question: Which results are given for `NC[C@@H]1NC(=O)C[C@@H](C(N)=O)NC(=O)CNC(=O)[C@H](CNC(=O)c2cnc3ccccc3n2)NC(=O)CNC(=O)[C@H](CNC(=O)c2cnc3ccccc3n2)NC(=O)CNC1=O`?
Answer: ring closure, product found [4]: 1; ring closure, conversion by HPLC [4]: 79

Question: Which results are given for `NC[C@@H]1NC(=O)C[C@@H](C(N)=O)NC(=O)CNC(=O)CNC(=O)[C@H](CNC(=O)c2cnc3ccccc3n2)NC(=O)CNC(=O)CNC1=O` [H-Dap(Boc)-Gly-Gly-Dap(Qxc)-Gly-Gly-Asp(OH)-NH-Rink resin]?
Answer: ring closure, product found [5]: 1; ring closure, conversion by HPLC [5]: 84

Question: For `NC[C@@H]1NC(=O)C[C@@H](C(N)=O)NC(=O)CNC(=O)CNC(=O)[C@H](CNC(=O)c2cnc3ccccc3n2)NC(=O)[C@H](CNC(=O)c2cnc3ccccc3n2)NC(=O)[C@H](CNC(=O)c2cnc3ccccc3n2)NC1=O`, which ring closure, product found [6] is on record?
Answer: 1

Question: What about the ring closure, conversion by HPLC [6] of the same compound?
Answer: 25

Question: For `NC[C@@H]1NC(=O)C[C@@H](C(N)=O)NC(=O)[C@H](CNC(=O)c2cnc3ccccc3n2)NC(=O)CNC(=O)CNC(=O)CNC(=O)[C@H](CNC(=O)c2cnc3ccccc3n2)NC1=O`, which ring closure, product found [7] is on record?
Answer: 1

Question: What about the ring closure, conversion by HPLC [7] of the same compound?
Answer: 64

Question: For `NC[C@@H]1NC(=O)C[C@@H](C(N)=O)NC(=O)[C@H](CNC(=O)c2cnc3ccccc3n2)NC(=O)CNC(=O)CNC(=O)[C@H](CNC(=O)c2cnc3ccccc3n2)NC(=O)CNC1=O`, which ring closure, product found [8] is on record?
Answer: 1

Question: And the ring closure, conversion by HPLC [8]?
Answer: 56

Question: What does the source list for `NC[C@@H]1NC(=O)C[C@@H](C(N)=O)NC(=O)[C@H](CNC(=O)c2cnc3ccccc3n2)NC(=O)[C@H](CNC(=O)c2cnc3ccccc3n2)NC(=O)CNC(=O)CNC(=O)CNC1=O`?
Answer: ring closure, product found [9]: 1; ring closure, conversion by HPLC [9]: 75

Question: For `NC[C@@H]1NC(=O)C[C@@H](C(N)=O)NC(=O)CNC(=O)[C@H](CNC(=O)c2cnc3ccccc3n2)NC(=O)[C@H](CNC(=O)c2cnc3ccccc3n2)NC(=O)[C@H](CNC(=O)c2cnc3ccccc3n2)NC(=O)CNC1=O`, which ring closure, product found [10] is on record?
Answer: 1

Question: What about the ring closure, conversion by HPLC [10] of the same compound?
Answer: 79

Question: For `NC[C@@H]1NC(=O)C[C@@H](C(N)=O)NC(=O)CNC(=O)[C@H](CNC(=O)c2cnc3ccccc3n2)NC(=O)CNC(=O)[C@H](CNC(=O)c2cnc3ccccc3n2)NC1=O` [H-Dap(Boc)-Dap(Qxc)-Gly-Dap(Qxc)-Gly-Asp(OH)-NH-Rink resin], which ring closure, product found (from CC(C)(C)OC(=O)NC[C@H](N)C(=O)N[C@@H](CNC(=O)c1cnc2ccccc2n1)C(=O)NCC(=O)N[C@@H](CNC(=O)c1cnc2ccccc2n1)C(=O)NCC(=O)N[C@@H](CC(=O)O)C(N)=O, 19-membered ring) is on record?
Answer: 1

Question: Which ring closure, product found [11] does the source give for `NC[C@@H]1NC(=O)C[C@@H](C(N)=O)NC(=O)CNC(=O)CNC(=O)CNC(=O)[C@H](CNC(=O)c2cnc3ccccc3n2)NC(=O)[C@H](CNC(=O)c2cnc3ccccc3n2)NC1=O` here?
Answer: 1

Question: What about the ring closure, conversion by HPLC [11] of the same compound?
Answer: 35
